Test results published in patent US20200181117A1, “SUBSTITUTED 3-HETEROARYLOXY-1H-PYRAZOLES AND SALTS THEREOF AND THEIR USE AS HERBICIDAL ACTIVE SUBSTANCES” (BAYER CROPSCIENCE AKTIENGESELLSCHAFT, priority 2017, published 2020).

How the values were obtained:
Type in all cases: in vivo
Hordeum murinum [1] = assay: Pre-emergence herbicidal action; settings: 1280 g/ha, scored visually after about 3 weeks vs untreated controls
How it was run: (§1)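 Visual percentage damage relative to untreated controls, scored about 3 weeks after treatment (100% = plants died, 0% = like controls). Compounds were applied at 1280 g/ha to the covering soil over sown seeds as aqueous suspension or emulsion containing 0.5% additive.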

Avena fatua [2] = assay: Pre-emergence herbicidal action; settings: 1280 g/ha, scored visually after about 3 weeks vs untreated controls
How it was run: as §1

Setaria viridis [3] = assay: Pre-emergence herbicidal action; settings: 1280 g/ha, scored visually after about 3 weeks vs untreated controls
How it was run: as §1

Stellaria media [4] = assay: Pre-emergence herbicidal action; settings: 1280 g/ha, scored visually after about 3 weeks vs untreated controls
How it was run: as §1

Echinochloa crus-galli [5] = assay: Pre-emergence herbicidal action; settings: 1280 g/ha, scored visually after about 3 weeks vs untreated controls
How it was run: as §1

Veronica persica [6] = assay: Pre-emergence herbicidal action; settings: 1280 g/ha, scored visually after about 3 weeks vs untreated controls
How it was run: as §1

Abutilon theophrasti [7] = assay: Pre-emergence herbicidal action; settings: 1280 g/ha, scored visually after about 3 weeks vs untreated controls
How it was run: as §1

Polygonum convolvulus [8] = assay: Pre-emergence herbicidal action; settings: 1280 g/ha, scored visually after about 3 weeks vs untreated controls
How it was run: as §1

Lolium rigidum [9] = assay: Pre-emergence herbicidal action; settings: 1280 g/ha, scored visually after about 3 weeks vs untreated controls
How it was run: as §1

Viola tricolor [10] = assay: Pre-emergence herbicidal action; settings: 1280 g/ha, scored visually after about 3 weeks vs untreated controls
How it was run: as §1

Alopecurus myosuroides [11] = assay: Pre-emergence herbicidal action; settings: 1280 g/ha, scored visually after about 3 weeks vs untreated controls
How it was run: as §1

Pharbitis purpurea [12] = assay: Pre-emergence herbicidal action; settings: 1280 g/ha, scored visually after about 3 weeks vs untreated controls
How it was run: as §1

Amaranthus retroflexus [13] = assay: Pre-emergence herbicidal action; settings: 1280 g/ha, scored visually after about 3 weeks vs untreated controls
How it was run: as §1

Matricaria inodora [14] = assay: Pre-emergence herbicidal action; settings: 1280 g/ha, scored visually after about 3 weeks vs untreated controls
How it was run: as §1

Hordeum murinum [15] = assay: Post-emergence herbicidal action; settings: 1280 g/ha, rated visually after about 3 weeks vs untreated controls
How it was run: (§2)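 Visual rating against untreated plants, about 3 weeks post-treatment, on a 0-100% scale where 100% means plant death. Treatment: 1280 g/ha of WP/EC preparations with 0.5% additive in 600 l/ha water, sprayed on one-leaf-stage weeds grown in greenhouse sandy loam.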

Avena fatua [16] = assay: Post-emergence herbicidal action; settings: 1280 g/ha, rated visually after about 3 weeks vs untreated controls
How it was run: as §2

Setaria viridis [17] = assay: Post-emergence herbicidal action; settings: 1280 g/ha, rated visually after about 3 weeks vs untreated controls
How it was run: as §2

Stellaria media [18] = assay: Post-emergence herbicidal action; settings: 1280 g/ha, rated visually after about 3 weeks vs untreated controls
How it was run: as §2

Echinochloa crus-galli [19] = assay: Post-emergence herbicidal action; settings: 1280 g/ha, rated visually after about 3 weeks vs untreated controls
How it was run: as §2

Abutilon theophrasti [20] = assay: Post-emergence herbicidal action; settings: 1280 g/ha, rated visually after about 3 weeks vs untreated controls
How it was run: as §2

Polygonum convolvulus [21] = assay: Post-emergence herbicidal action; settings: 1280 g/ha, rated visually after about 3 weeks vs untreated controls
How it was run: as §2

Lolium rigidum [22] = assay: Post-emergence herbicidal action; settings: 1280 g/ha, rated visually after about 3 weeks vs untreated controls
How it was run: as §2

Viola tricolor [23] = assay: Post-emergence herbicidal action; settings: 1280 g/ha, rated visually after about 3 weeks vs untreated controls
How it was run: as §2

Alopecurus myosuroides [24] = assay: Post-emergence herbicidal action; settings: 1280 g/ha, rated visually after about 3 weeks vs untreated controls
How it was run: as §2

Pharbitis purpurea [25] = assay: Post-emergence herbicidal action; settings: 1280 g/ha, rated visually after about 3 weeks vs untreated controls
How it was run: as §2

Amaranthus retroflexus [26] = assay: Post-emergence herbicidal action; settings: 1280 g/ha, rated visually after about 3 weeks vs untreated controls
How it was run: as §2

Veronica persica [27] = assay: Post-emergence herbicidal action; settings: 1280 g/ha, rated visually after about 3 weeks vs untreated controls
How it was run: as §2

Matricaria inodora [28] = assay: Post-emergence herbicidal action; settings: 1280 g/ha, rated visually after about 3 weeks vs untreated controls
How it was run: as §2

Compound	herbicidal activity on Hordeum murinum (Hordeum murinum [1]) [%]	herbicidal activity on Avena fatua (Avena fatua [2]) [%]	herbicidal activity on Setaria viridis (Setaria viridis [3]) [%]	herbicidal activity on Stellaria media (Stellaria media [4]) [%]	herbicidal activity on Echinochloa crus-galli (Echinochloa crus-galli [5]) [%]	herbicidal activity on Veronica persica (Veronica persica [6]) [%]	herbicidal activity on Abutilon theophrasti (Abutilon theophrasti [7]) [%]	herbicidal activity on Polygonum convolvulus (Polygonum convolvulus [8]) [%]	herbicidal activity on Lolium rigidum (Lolium rigidum [9]) [%]	herbicidal activity on Viola tricolor (Viola tricolor [10]) [%]	herbicidal activity on Amaranthus retroflexus (Amaranthus retroflexus [13]) [%]	herbicidal activity on Matricaria inodora (Matricaria inodora [14]) [%]	herbicidal activity on Setaria viridis (Setaria viridis [17]) [%]	herbicidal activity on Stellaria media (Stellaria media [18]) [%]	herbicidal activity on Echinochloa crus-galli (Echinochloa crus-galli [19]) [%]	herbicidal activity on Abutilon theophrasti (Abutilon theophrasti [20]) [%]	herbicidal activity on Polygonum convolvulus (Polygonum convolvulus [21]) [%]	herbicidal activity on Viola tricolor (Viola tricolor [23]) [%]	herbicidal activity on Alopecurus myosuroides (Alopecurus myosuroides [24]) [%]	herbicidal activity on Amaranthus retroflexus (Amaranthus retroflexus [26]) [%]	other results
Cc1c(Sc2ccc(F)c(F)c2)c(Oc2ncc(F)cn2)nn1C [Example I-093]	100	100	100	100	100	100	100	100	100	100	100	100	100	100	100	90	100	100	100	100	herbicidal activity on Alopecurus myosuroides (Alopecurus myosuroides [11]): 100%; herbicidal activity on Pharbitis purpurea (Pharbitis purpurea [12]): 80%; herbicidal activity on Hordeum murinum (Hordeum murinum [15]): 90%; herbicidal activity on Avena fatua (Avena fatua [16]): 100%; herbicidal activity on Lolium rigidum (Lolium rigidum [22]): 100%; herbicidal activity on Pharbitis purpurea (Pharbitis purpurea [25]): 90%
Cc1c(Sc2ccc(F)cc2)c(Oc2ncc(Cl)cn2)nn1C [Example I-060]	–	–	90	–	80	100	80	100	–	100	100	–	80	100	90	80	80	100	90	100	herbicidal activity on Veronica persica (Veronica persica [27]): 90%; herbicidal activity on Matricaria inodora (Matricaria inodora [28]): 80%
Cc1c(Sc2cccc(Cl)c2)c(Oc2ncccn2)nn1C [Example I-069]	100	100	100	100	100	100	100	100	100	100	100	100	80	–	80	80	100	100	100	100	herbicidal activity on Alopecurus myosuroides (Alopecurus myosuroides [11]): 100%; herbicidal activity on Hordeum murinum (Hordeum murinum [15]): 80%
Cc1c(Sc2cccc(F)c2)c(Oc2ncc(F)cn2)nn1C [Example I-158]	100	100	100	100	100	100	100	100	100	100	100	100	100	90	100	90	100	100	100	100	herbicidal activity on Alopecurus myosuroides (Alopecurus myosuroides [11]): 100%; herbicidal activity on Avena fatua (Avena fatua [16]): 80%; herbicidal activity on Lolium rigidum (Lolium rigidum [22]): 100%; herbicidal activity on Pharbitis purpurea (Pharbitis purpurea [25]): 80%
Cc1c(Sc2ccc(F)cc2Cl)c(Oc2ncc(F)cn2)nn1C [Example I-065]	–	–	100	100	–	–	80	100	–	100	100	90	–	90	–	80	100	100	–	100	herbicidal activity on Pharbitis purpurea (Pharbitis purpurea [25]): 100%; herbicidal activity on Matricaria inodora (Matricaria inodora [28]): 80%
Cc1c(Sc2ccc(F)c(F)c2)c(Oc2ncccn2)nn1C [Example I-036]	100	90	100	100	100	100	100	–	100	100	90	90	90	90	90	90	100	100	90	100	herbicidal activity on Alopecurus myosuroides (Alopecurus myosuroides [11]): 90%; herbicidal activity on Pharbitis purpurea (Pharbitis purpurea [12]): 80%; herbicidal activity on Avena fatua (Avena fatua [16]): 100%; herbicidal activity on Lolium rigidum (Lolium rigidum [22]): 90%
Cc1c(Sc2ccccc2)c(Oc2ncc(F)cn2)nn1C [Example I-133]	100	100	100	100	100	–	100	100	100	100	100	100	100	100	100	100	100	100	100	100	herbicidal activity on Alopecurus myosuroides (Alopecurus myosuroides [11]): 100%; herbicidal activity on Hordeum murinum (Hordeum murinum [15]): 90%; herbicidal activity on Veronica persica (Veronica persica [27]): 100%; herbicidal activity on Lolium rigidum (Lolium rigidum [22]): 90%; herbicidal activity on Pharbitis purpurea (Pharbitis purpurea [25]): 100%
Cc1c(Sc2ccc(F)c(F)c2)c(Oc2cnccn2)nn1C [Example I-141]	80	80	100	90	100	100	100	100	90	100	100	100	90	100	100	90	100	90	80	100	herbicidal activity on Alopecurus myosuroides (Alopecurus myosuroides [11]): 90%; herbicidal activity on Avena fatua (Avena fatua [16]): 80%; herbicidal activity on Veronica persica (Veronica persica [27]): 100%; herbicidal activity on Pharbitis purpurea (Pharbitis purpurea [25]): 80%
